Measurements reported in the supplement of paper PMC10307832.

Columns and labels:
Test in all cases: relative viability (nuclei count vs DMSO), 5 days (fraction); higher = more cells survive
[1] = compound: C[As](C)SC[C@H](NC(=O)CC[C@H](N)C(=O)O)C(=O)NCC(=O)O [Darinaparsin] + CCNC(=O)c1noc(-c2cc(C(C)C)c(O)cc2O)c1-c1ccc(CN2CCOCC2)cc1 [Luminespib] (partner 0.01 µM)
Method in brief: (§1)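 Each reported value is a median over duplicate plates. It expresses relative viability: treated-well nuclei count divided by vehicle-well nuclei count. Lung cancer cell lines in 1536-well plates were dosed by pin tool a day after seeding, alone with one drug or with a fixed anchor-drug dose plus five library-drug doses (not always all listed) in √10 steps, and nuclei were counted after 5 days.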

[2] = compound: C1CC2=C(C1)C=C(C=C2)OC3=NC(=C4C(=N3)N(C=N4)CC5=CC=C(C=C5)C6=CC=CC=C6)N[C@@H](CC7=CC=CC=C7)CO [QS11] + COc1cc2c(Oc3ccc(NC(=O)C4(C(=O)Nc5ccc(F)cc5)CC4)cc3F)ccnc2cc1OCCCN1CCOCC1 [Foretinib] (partner 0.25 µM)
Method in brief: as §1

[3] = compound: CC1=C(C=C(C=C1)NC(=O)C2=CC(=CC=C2)C(C)(C)C#N)NC3=CC4=C(C=C3)N=CN(C4=O)C [AZ628] + COc1cc2c(Oc3ccc(NC(=O)C4(C(=O)Nc5ccc(F)cc5)CC4)cc3F)ccnc2cc1OCCCN1CCOCC1 [Foretinib] (partner 0.25 µM)
Method in brief: as §1

[4] = compound: C[As](C)SC[C@H](NC(=O)CC[C@H](N)C(=O)O)C(=O)NCC(=O)O [Darinaparsin] + CC(C)C[C@H](NC(=O)[C@H](Cc1ccccc1)NC(=O)c1cnccn1)B(O)O [Bortezomib] (partner 0.002 µM)
Method in brief: as §1

Cell Line: NCI-H1355
- relative viability ([1]; first compound 0.08 µM): 0.702
- relative viability ([1]; first compound 0.8 µM): 0.725
- relative viability ([1]; first compound 2.53 µM): 0.559
- relative viability ([1]; first compound 8 µM): 0.568
- relative viability ([2]; first compound 0.08 µM): 1.01
- relative viability ([2]; first compound 0.253 µM): 0.911
- relative viability ([2]; first compound 0.8 µM): 0.775
- relative viability ([2]; first compound 2.53 µM): 0.931
- relative viability ([2]; first compound 8 µM): 1.05
- relative viability ([3]; first compound 0.08 µM): 0.976
- relative viability ([3]; first compound 0.253 µM): 0.937
- relative viability ([3]; first compound 0.8 µM): 1.03
- relative viability ([3]; first compound 2.53 µM): 1.02
- relative viability ([3]; first compound 8 µM): 0.871
- relative viability ([4]; first compound 0.08 µM): 1.38
- relative viability ([4]; first compound 0.8 µM): 1.13
- relative viability ([4]; first compound 2.53 µM): 1.19
- relative viability ([4]; first compound 8 µM): 1.36

Cell Line: NCI-H1437
- relative viability ([1]; first compound 0.08 µM): 1.32
- relative viability ([1]; first compound 0.8 µM): 1.21
- relative viability ([1]; first compound 2.53 µM): 1.08
- relative viability ([1]; first compound 8 µM): 1.36
- relative viability ([2]; first compound 0.08 µM): 1.31
- relative viability ([2]; first compound 0.253 µM): 1.23
- relative viability ([2]; first compound 0.8 µM): 0.973
- relative viability ([2]; first compound 2.53 µM): 1.17
- relative viability ([2]; first compound 8 µM): 1.12
- relative viability ([3]; first compound 0.08 µM): 1.26
- relative viability ([3]; first compound 0.253 µM): 1.13
- relative viability ([3]; first compound 0.8 µM): 1.25
- relative viability ([3]; first compound 2.53 µM): 1.28
- relative viability ([3]; first compound 8 µM): 1.23
- relative viability ([4]; first compound 0.08 µM): 0.562
- relative viability ([4]; first compound 0.8 µM): 0.558
- relative viability ([4]; first compound 2.53 µM): 0.468
- relative viability ([4]; first compound 8 µM): 0.584

Cell Line: NCI-H1563
- relative viability ([1]; first compound 0.08 µM): 0.588
- relative viability ([1]; first compound 0.8 µM): 0.429
- relative viability ([1]; first compound 2.53 µM): 0.495
- relative viability ([1]; first compound 8 µM): 0.473
- relative viability ([2]; first compound 0.08 µM): 0.971
- relative viability ([2]; first compound 0.253 µM): 0.876
- relative viability ([2]; first compound 0.8 µM): 1.06
- relative viability ([2]; first compound 2.53 µM): 1.07
- relative viability ([2]; first compound 8 µM): 0.916
- relative viability ([3]; first compound 0.08 µM): 0.957
- relative viability ([3]; first compound 0.253 µM): 0.997
- relative viability ([3]; first compound 0.8 µM): 0.944
- relative viability ([3]; first compound 2.53 µM): 0.963
- relative viability ([3]; first compound 8 µM): 0.953
- relative viability ([4]; first compound 0.08 µM): 0.831
- relative viability ([4]; first compound 0.8 µM): 0.862
- relative viability ([4]; first compound 2.53 µM): 0.828
- relative viability ([4]; first compound 8 µM): 0.93

Cell Line: NCI-H1650
- relative viability ([1]; first compound 0.08 µM): 0.238
- relative viability ([1]; first compound 0.8 µM): 0.214
- relative viability ([1]; first compound 2.53 µM): 0.187
- relative viability ([1]; first compound 8 µM): 0.173
- relative viability ([2]; first compound 0.08 µM): 1
- relative viability ([2]; first compound 0.253 µM): 1.25
- relative viability ([2]; first compound 0.8 µM): 0.799
- relative viability ([2]; first compound 2.53 µM): 1.14
- relative viability ([2]; first compound 8 µM): 1.19
- relative viability ([3]; first compound 0.08 µM): 1.33
- relative viability ([3]; first compound 0.253 µM): 1.34
- relative viability ([3]; first compound 0.8 µM): 1.42
- relative viability ([3]; first compound 2.53 µM): 1.26
- relative viability ([3]; first compound 8 µM): 1.02
- relative viability ([4]; first compound 0.08 µM): 0.216
- relative viability ([4]; first compound 0.8 µM): 0.193
- relative viability ([4]; first compound 2.53 µM): 0.193
- relative viability ([4]; first compound 8 µM): 0.195

Cell Line: NCI-H1651
- relative viability ([1]; first compound 0.08 µM): 0.886
- relative viability ([1]; first compound 0.8 µM): 0.831
- relative viability ([1]; first compound 2.53 µM): 0.926
- relative viability ([1]; first compound 8 µM): 1.16
- relative viability ([2]; first compound 0.08 µM): 0.787
- relative viability ([2]; first compound 0.253 µM): 0.901
- relative viability ([2]; first compound 0.8 µM): 0.822
- relative viability ([2]; first compound 2.53 µM): 0.671
- relative viability ([2]; first compound 8 µM): 0.698
- relative viability ([3]; first compound 0.08 µM): 0.887
- relative viability ([3]; first compound 0.253 µM): 0.867
- relative viability ([3]; first compound 0.8 µM): 0.885
- relative viability ([3]; first compound 2.53 µM): 0.774
- relative viability ([3]; first compound 8 µM): 0.856
- relative viability ([4]; first compound 0.08 µM): 1.05
- relative viability ([4]; first compound 0.8 µM): 1.05
- relative viability ([4]; first compound 2.53 µM): 0.917
- relative viability ([4]; first compound 8 µM): 1.12

Cell Line: NCI-H1666
- relative viability ([1]; first compound 0.08 µM): 1.05
- relative viability ([1]; first compound 0.8 µM): 0.897
- relative viability ([1]; first compound 2.53 µM): 1.24
- relative viability ([1]; first compound 8 µM): 1.07
- relative viability ([2]; first compound 0.08 µM): 0.908
- relative viability ([2]; first compound 0.253 µM): 1.05
- relative viability ([2]; first compound 0.8 µM): 0.653
- relative viability ([2]; first compound 2.53 µM): 0.85
- relative viability ([2]; first compound 8 µM): 0.582
- relative viability ([3]; first compound 0.08 µM): 0.894
- relative viability ([3]; first compound 0.253 µM): 0.769
- relative viability ([3]; first compound 0.8 µM): 0.749
- relative viability ([3]; first compound 2.53 µM): 0.756
- relative viability ([3]; first compound 8 µM): 0.893
- relative viability ([4]; first compound 0.08 µM): 0.916
- relative viability ([4]; first compound 0.8 µM): 0.882
- relative viability ([4]; first compound 2.53 µM): 0.978
- relative viability ([4]; first compound 8 µM): 0.847

Cell Line: NCI-H1734
- relative viability ([1]; first compound 0.08 µM): 0.201
- relative viability ([1]; first compound 0.8 µM): 0.16
- relative viability ([1]; first compound 2.53 µM): 0.2
- relative viability ([1]; first compound 8 µM): 0.19
- relative viability ([2]; first compound 0.08 µM): 0.842
- relative viability ([2]; first compound 0.253 µM): 0.932
- relative viability ([2]; first compound 0.8 µM): 0.91
- relative viability ([2]; first compound 2.53 µM): 0.772
- relative viability ([2]; first compound 8 µM): 0.713
- relative viability ([3]; first compound 0.08 µM): 0.667
- relative viability ([3]; first compound 0.253 µM): 0.759
- relative viability ([3]; first compound 0.8 µM): 0.686
- relative viability ([3]; first compound 2.53 µM): 0.753
- relative viability ([3]; first compound 8 µM): 0.416
- relative viability ([4]; first compound 0.08 µM): 1.37
- relative viability ([4]; first compound 0.8 µM): 0.937
- relative viability ([4]; first compound 2.53 µM): 0.854
- relative viability ([4]; first compound 8 µM): 0.986

Cell Line: NCI-H1755
- relative viability ([1]; first compound 0.08 µM): 0.491
- relative viability ([1]; first compound 0.8 µM): 0.393
- relative viability ([1]; first compound 2.53 µM): 0.411
- relative viability ([1]; first compound 8 µM): 0.57
- relative viability ([2]; first compound 0.08 µM): 0.962
- relative viability ([2]; first compound 0.253 µM): 0.841
- relative viability ([2]; first compound 0.8 µM): 0.566
- relative viability ([2]; first compound 2.53 µM): 0.732
- relative viability ([2]; first compound 8 µM): 0.683
- relative viability ([3]; first compound 0.08 µM): 0.905
- relative viability ([3]; first compound 0.253 µM): 0.929
- relative viability ([3]; first compound 0.8 µM): 0.858
- relative viability ([3]; first compound 2.53 µM): 0.965
- relative viability ([3]; first compound 8 µM): 0.867
- relative viability ([4]; first compound 0.08 µM): 1.04
- relative viability ([4]; first compound 0.8 µM): 0.94
- relative viability ([4]; first compound 2.53 µM): 0.915
- relative viability ([4]; first compound 8 µM): 1.18

Cell Line: NCI-H1915
- relative viability ([1]; first compound 0.08 µM): 1.04
- relative viability ([1]; first compound 0.8 µM): 0.795
- relative viability ([1]; first compound 2.53 µM): 0.625
- relative viability ([1]; first compound 8 µM): 0.827
- relative viability ([2]; first compound 0.08 µM): 1.17
- relative viability ([2]; first compound 0.253 µM): 1.18
- relative viability ([2]; first compound 2.53 µM): 1.07
- relative viability ([2]; first compound 8 µM): 1.01
- relative viability ([3]; first compound 0.08 µM): 1.23
- relative viability ([3]; first compound 0.253 µM): 1.1
- relative viability ([3]; first compound 0.8 µM): 0.987
- relative viability ([3]; first compound 2.53 µM): 0.89
- relative viability ([3]; first compound 8 µM): 0.59
- relative viability ([4]; first compound 0.08 µM): 1.08
- relative viability ([4]; first compound 0.8 µM): 1.03
- relative viability ([4]; first compound 2.53 µM): 0.844
- relative viability ([4]; first compound 8 µM): 1.25
